Test results as given in PubChem BioAssay (NCI).
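Values below derive from 48-hour exposures of cells grown in 96-well plates, with endpoints linearly interpolated between the two concentrations bracketing the appropriate inhibition level. GI50 is the concentration that inhibits growth by half. At the TGI there is no net growth.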

Experiments:
Experiment in all cases: NCI tumour cell line growth inhibition, 48 h
786-0 renal = system: 786-0 renal
DU-145 prostate = system: DU-145 prostate
HCT-15 colon = system: HCT-15 colon
HT29 colon = system: HT29 colon
NCI/ADR-RES ovarian = system: NCI/ADR-RES ovarian
PC-3 prostate = system: PC-3 prostate
RXF 393 renal = system: RXF 393 renal
SN12C renal = system: SN12C renal
SW-620 colon = system: SW-620 colon
NCI-H226 lung = system: NCI-H226 lung

| Structure (SMILES) | TGI (786-0 renal) | TGI (DU-145 prostate) | TGI (HCT-15 colon) | TGI (HT29 colon) | TGI (NCI/ADR-RES ovarian) | TGI (PC-3 prostate) | TGI (RXF 393 renal) | TGI (SN12C renal) | TGI (SW-620 colon) | TGI (NCI-H226 lung) | GI50 (HT29 colon) |
| --- | --- | --- | --- | --- | --- | --- | --- | --- | --- | --- | --- |
| CCCCCCCCCCCCOCC(COP(=O)(O)OCCN=[N+]=[N-])OC(=O)CCCCCCCCCCC (configuration not stated) | > 100 µM | > 100 µM | > 100 µM | > 100 µM | > 100 µM | > 100 µM | > 100 µM | > 100 µM | > 100 µM | – | – |
| CCCCCCCCCCCC1=C(O)C(=O)C(CC2=C(O)C(=O)C(CCCCCCCCCCC)=C(O)C2=O)=C(O)C1=O | > 100 µM | > 100 µM | > 100 µM | > 100 µM | > 100 µM | > 100 µM | 25.2 µM | > 100 µM | > 100 µM | > 100 µM | – |
| O=c1[nH]ncc2[nH]c3c(c12)CCc1ccccc1-3 | > 100 µM | > 100 µM | > 100 µM | > 100 µM | > 100 µM | > 100 µM | 42 µM | > 100 µM | > 100 µM | 40.7 µM | – |
| NC1CCC2(O)c3ccccc3C2C1 (configuration not stated) | > 100 µM | – | > 100 µM | > 100 µM | – | – | > 100 µM | > 100 µM | > 100 µM | > 100 µM | – |
| O=C1Nc2noc(=O)nc2NO1 | > 200 µM | > 200 µM | > 200 µM | > 200 µM | > 200 µM | > 200 µM | > 200 µM | > 200 µM | > 200 µM | > 200 µM | – |
| Cc1cc(NC(=O)NC(=O)c2ccccc2NC(=O)CN(C)C)ccc1Oc1ncc(Br)cn1 | > 89.3 µM | > 100 µM | > 100 µM | 31.1 µM | > 27.8 µM | > 100 µM | 22.8 µM | > 100 µM | > 100 µM | > 92.7 µM | – |
| CC[C@]1(c2ccc3c(c2)OCO3)C=[N+]([O-])O[C@H](OC2CCCC2(c2ccccc2)c2ccccc2)[C@@H]1OC(C)=O (some centres not stated) | 3.77 µM | 7.44 µM | 6.18 µM | 3.78 µM | 4.88 µM | 13.1 µM | 2.63 µM | > 22.3 µM | > 100 µM | 22.7 µM | – |
| C/C(=N\NC(=S)NC(C)(C)C)c1nc2ncccc2[nH]1 | > 100 µM | > 57.5 µM | > 100 µM | > 100 µM | > 84.4 µM | > 100 µM | > 100 µM | > 100 µM | > 100 µM | 13.9 µM | – |
| COc1ccc(C2C(=O)c3ccc(OC)cc3OC2c2cccnc2)cc1 (configuration not stated) | > 100 µM | > 100 µM | > 100 µM | > 100 µM | > 100 µM | > 100 µM | > 100 µM | > 100 µM | > 100 µM | > 100 µM | – |
| O=C1/C(=C\c2cccc(Oc3ccccc3)c2)SC(c2ccccc2)N1c1cc(Cl)ccc1Cl (configuration not stated) | 76.5 µM | > 100 µM | > 100 µM | > 100 µM | > 100 µM | > 100 µM | 76.5 µM | 48.9 µM | 41.6 µM | – | – |
| CCOC(=O)CNC(=O)c1[nH]cnc1/N=N/N(C)C | > 100 µM | – | > 100 µM | > 100 µM | – | – | – | > 100 µM | > 100 µM | > 100 µM | – |
| CCCCCCCCCCCCCCCCNc1nc(=O)n(C2OC(C)C(O)C2O)cc1F (configuration not stated) | 35.6 µM | 36 µM | 29.1 µM | 31.2 µM | 43.8 µM | 28.1 µM | 44.8 µM | 40.6 µM | 46.8 µM | 40.6 µM | – |
| CC(C)Oc1cccc(N2C(CCc3c[nH]c4ccc(Br)cc34)=NS(=O)(=O)c3cnccc32)c1 | > 100 µM | > 100 µM | > 100 µM | > 100 µM | > 100 µM | > 100 µM | > 100 µM | > 100 µM | > 100 µM | 97.8 µM | – |
| COc1cc2c(cc1O)NC(=O)[C@@H]1C[C@@H](O)CN1C2=O | > 100 µM | > 100 µM | > 100 µM | > 100 µM | > 100 µM | > 100 µM | > 100 µM | > 100 µM | > 100 µM | > 100 µM | – |
| Cc1ccc(S(=O)(=O)OCCN(CCOS(=O)(=O)c2ccc(C)cc2)c2ccc(C=O)cc2)cc1 | – | 69.9 µM | > 100 µM | > 100 µM | > 100 µM | > 100 µM | 33.2 µM | – | > 100 µM | – | – |
| BrC1(c2ccccc2)C[n+]2c(-c3ccccc3)cc(-c3ccccc3)cc2-c2ccccc21 (configuration not stated) | 13.4 µM | 13.2 µM | 12 µM | 3.46 µM | 65.5 µM | 3.45 µM | 0.635 µM | 16.7 µM | 11.4 µM | 12.2 µM | – |
| COc1cccc(/C=N/[N-]C(N)=O)c1[O-].[Cu+2].[OH3+] | 30.3 µM | – | 27.2 µM | 21.3 µM | – | – | 36.2 µM | 27.2 µM | 27.3 µM | 31.3 µM | 9.17 µM |
| O=[N+]([O-])/C=C/c1cc(Cl)c(/C=C/[N+](=O)[O-])cc1Cl | – | 7.96 µM | 4.19 µM | 5.78 µM | > 25 µM | 9.15 µM | 3.14 µM | – | 6.06 µM | 5.4 µM | – |
| COc1ccc(S(=O)(=O)NC(CCC(=O)NC(N)=O)C(=O)NC(N)=O)cc1 (configuration not stated) | > 100 µM | > 100 µM | > 100 µM | > 100 µM | > 100 µM | > 100 µM | – | > 100 µM | > 100 µM | > 100 µM | – |
| COC1=C(OC)C(=O)C(Cc2c(Cl)nc3sccn23)=C(C)C1=O | 33.2 µM | 27.2 µM | 27.2 µM | 27.7 µM | 20 µM | 28.5 µM | 31.1 µM | 26.2 µM | 30.4 µM | – | – |
| CC(=O)c1c(-c2ccc(Cl)cc2)c(C#N)c(=S)n(C2OC(CO)C(O)C(O)C2O)c1C (configuration not stated) | > 100 µM | > 100 µM | > 100 µM | > 100 µM | > 100 µM | 99.3 µM | > 100 µM | > 100 µM | – | > 100 µM | – |
| CCOC(=O)C(Cc1ccc(N=NN(C)C)cc1)NC(=O)CC1c2ccccc2-c2ccccc21 (configuration not stated) | > 100 µM | – | > 100 µM | > 100 µM | – | – | – | > 100 µM | > 100 µM | > 100 µM | – |
